According to article PMC8754100, “Role of Hepatocyte- and Macrophage-Specific PPARγ in Hepatotoxicity Induced by Diethylhexyl Phthalate in Mice” (Environmental Health Perspectives, 2022):

Target: T1, PPARα (Homo sapiens, UniProt Q07869)
T1 construct: gene PPARA
T1 sequence (Q07869 1-468): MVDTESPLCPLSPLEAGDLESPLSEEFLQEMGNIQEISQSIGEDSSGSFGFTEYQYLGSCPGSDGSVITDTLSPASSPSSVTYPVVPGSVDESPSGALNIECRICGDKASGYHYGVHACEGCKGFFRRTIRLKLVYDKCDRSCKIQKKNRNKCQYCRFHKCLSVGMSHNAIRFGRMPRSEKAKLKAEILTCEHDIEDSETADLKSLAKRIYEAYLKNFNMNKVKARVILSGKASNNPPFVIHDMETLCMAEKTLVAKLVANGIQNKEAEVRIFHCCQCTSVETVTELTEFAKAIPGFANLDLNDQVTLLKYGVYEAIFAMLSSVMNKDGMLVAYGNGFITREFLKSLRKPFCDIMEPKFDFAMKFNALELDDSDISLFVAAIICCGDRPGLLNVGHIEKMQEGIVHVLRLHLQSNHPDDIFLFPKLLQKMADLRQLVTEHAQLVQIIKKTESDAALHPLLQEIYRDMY
Test: SPR (OpenSPR) with recombinant human PPARα immobilized by amine coupling
Type: binding

CCCCC(CC)COC(=O)c1ccccc1C(=O)O (stereo not shown) [MEHP, mono(2-ethylhexyl) phthalate]
Kd: 627 µM
